Reference: US20230407243A1, “GENETIC PLATFORM TO INVESTIGATE THE FUNCTIONS OF BACTERIAL DRUG EFFLUX PUMPS” (priority 2022, published 2023)
≈ marks a conversion by molar mass, not a printed value. Read-outs that look alike come from different tables or passages of the source.

How the values were obtained:
Assay type in all cases: cell-based, Escherichia coli
EKO-35 (empty pCA24N) = assay: microbe, parasite or virus in culture; settings: for MIC, EKO-35 (empty pCA24N), Chlor + / MIC, EKO-35 (empty pCA24N), Chlor − / MIC: 0.1 mM IPTG; for MIC, EKO-35 (empty pCA24N), Chlor +: 4 μg/mL chloramphenicol selection; for MIC, EKO-35 (empty pCA24N), Chlor −: no plasmid selection; for MIC: EKO-35 empty pCA24N
EKO-35 wcaC (pCA24N) = assay: MIC of strains harboring ASKA plasmids; settings: 0.1 mM IPTG; for MIC, EKO-35 wcaC (pCA24N), Chlor +: 4 μg/mL chloramphenicol selection; for MIC, EKO-35 wcaC (pCA24N), Chlor −: no plasmid selection; for MIC: EKO-35 wcaC
EKO-35 gyrB (pCA24N) = assay: MIC of strains harboring ASKA plasmids; settings: 0.1 mM IPTG; for MIC, EKO-35 gyrB (pCA24N), Chlor +: 4 μg/mL chloramphenicol selection; for MIC, EKO-35 gyrB (pCA24N), Chlor −: no plasmid selection; for MIC: EKO-35 gyrB
ΔtolC (empty pCA24N) = assay: microbe, parasite or virus in culture; settings: 0.1 mM IPTG; for MIC, ΔtolC (empty pCA24N), Chlor −: no plasmid selection; for MIC, ΔtolC (empty pCA24N), Chlor +: with chloramphenicol plasmid selection; for MIC: ΔtolC empty pCA24N
EKO-35 pitA (pCA24N) = assay: MIC of strains harboring ASKA plasmids; settings: 0.1 mM IPTG; for MIC, EKO-35 pitA (pCA24N), Chlor −: no plasmid selection
ΔtolC-Pore = settings: ΔtolC Pore
Summary of the method: (§1)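 MHB II, CLSI microdilution checkerboard, colony-resuspension inoculum, solvent controls per plate. MIC = no growth at OD600. FICI summed from FIC of PAβN/NMP and antibiotic; <0.5 synergistic, >2.0 antagonistic.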

[1] = test system: EKO-35 strains producing different efflux pumps (EKO-35 araC::X); assay: Checkerboard synergy (FICI) of PAβN or NMP with antibiotics; settings: for Effect / FICI: PAβN + antibiotic; for MICb Alone: antibiotic alone (PAβN checkerboard); for MICb Combined: antibiotic in combination with PAβN
Summary of the method: as §1

[2] = test system: EKO-35-Pore acrBD408A (functionally inactive AcrB variant); assay: Checkerboard synergy (FICI), porinated strain; settings: EKO-35 acrBD408A Pore
Summary of the method: as §1

EKO-35-Pore = assay: Checkerboard synergy (FICI), porinated strain
Summary of the method: as §1

wild-type K-12-Pore = assay: Checkerboard synergy (FICI), porinated strain; settings: K-12 Pore
Summary of the method: as §1

[3] = test system: EKO-35 porinated strain expressing acrB; assay: Checkerboard synergy (FICI), porinated strain; settings: EKO-35 acrB Pore
Summary of the method: as §1

[4] = antibiotic alone (PAβN checkerboard)
[5] = antibiotic in combination with PAβN
[6] = Chlor + (4 μg/mL chloramphenicol)

N#Cc1ccc(-c2c(NC(=O)C(Cl)Cl)oc(-c3cccs3)c2C#N)cc1 [compound 2]
MIC, EKO-35 (empty pCA24N), Chlor + (EKO-35 (empty pCA24N)): >5 μg/mL
MIC, EKO-35 (empty pCA24N), Chlor − (EKO-35 (empty pCA24N)): >5 μg/mL
MIC, EKO-35 wcaC (pCA24N), Chlor + (EKO-35 wcaC (pCA24N)): >5 μg/mL
MIC, EKO-35 wcaC (pCA24N), Chlor − (EKO-35 wcaC (pCA24N)): >5 μg/mL
MIC, EKO-35 gyrB (pCA24N), Chlor + (EKO-35 gyrB (pCA24N)): >5 μg/mL
MIC, EKO-35 gyrB (pCA24N), Chlor − (EKO-35 gyrB (pCA24N)): >5 μg/mL
MIC, ΔtolC (empty pCA24N), Chlor − (ΔtolC (empty pCA24N)): 1.25 μg/mL
MIC, ΔtolC (empty pCA24N), Chlor + (ΔtolC (empty pCA24N)): 1.25 μg/mL
MIC, EKO-35 pitA (pCA24N), Chlor − (EKO-35 pitA (pCA24N)): >5 μg/mL

Cn1cc(Br)c(-c2cccc(NC(=O)Nc3ccc(OC(F)(F)F)cc3)c2)n1 [compound 14]
MIC, EKO-35 (empty pCA24N), Chlor + (EKO-35 (empty pCA24N)): >5 μg/mL
MIC, EKO-35 (empty pCA24N), Chlor − (EKO-35 (empty pCA24N)): >5 μg/mL
MIC, EKO-35 wcaC (pCA24N), Chlor + (EKO-35 wcaC (pCA24N)): >5 μg/mL
MIC, EKO-35 wcaC (pCA24N), Chlor − (EKO-35 wcaC (pCA24N)): >5 μg/mL
MIC, EKO-35 gyrB (pCA24N), Chlor + (EKO-35 gyrB (pCA24N)): >5 μg/mL
MIC, EKO-35 gyrB (pCA24N), Chlor − (EKO-35 gyrB (pCA24N)): >5 μg/mL
MIC, ΔtolC (empty pCA24N), Chlor − (ΔtolC (empty pCA24N)): 1.25 μg/mL
MIC, ΔtolC (empty pCA24N), Chlor + (ΔtolC (empty pCA24N)): 1.25 μg/mL
MIC, EKO-35 pitA (pCA24N), Chlor − (EKO-35 pitA (pCA24N)): >5 μg/mL

O=C(Nc1ccccc1C(=O)Nc1nnc(C(F)(F)F)s1)c1ccccc1Cl [compound 19]
MIC, EKO-35 (empty pCA24N), Chlor + (EKO-35 (empty pCA24N)): >5 μg/mL
MIC, EKO-35 (empty pCA24N), Chlor − (EKO-35 (empty pCA24N)): >5 μg/mL
MIC, EKO-35 wcaC (pCA24N), Chlor + (EKO-35 wcaC (pCA24N)): >5 μg/mL
MIC, EKO-35 wcaC (pCA24N), Chlor − (EKO-35 wcaC (pCA24N)): >5 μg/mL
MIC, EKO-35 gyrB (pCA24N), Chlor + (EKO-35 gyrB (pCA24N)): >5 μg/mL
MIC, EKO-35 gyrB (pCA24N), Chlor − (EKO-35 gyrB (pCA24N)): >5 μg/mL
MIC, ΔtolC (empty pCA24N), Chlor − (ΔtolC (empty pCA24N)): 2.5 μg/mL
MIC, ΔtolC (empty pCA24N), Chlor + (ΔtolC (empty pCA24N)): 2.5 μg/mL
MIC, EKO-35 pitA (pCA24N), Chlor − (EKO-35 pitA (pCA24N)): >5 μg/mL

CO[C@@H]1[C@@H](OC(N)=O)[C@@H](O)[C@H](Oc2ccc3c(O)c(NC(=O)c4ccc(O)c(CC=C(C)C)c4)c(=O)oc3c2C)OC1(C)C [novobiocin]
Effect (ΔtolC-Pore; PAβN + antibiotic): Additive
FICI (ΔtolC-Pore; PAβN + antibiotic): 0.740
MICb Alone (ΔtolC-Pore; [4]): 0.25 µg/mL
MICb Combined (ΔtolC-Pore; [5]): 0.06 µg/mL
MIC (EKO-35 (empty pCA24N); [6]): 3.13 µg/mL
MIC (EKO-35 (empty pCA24N); Escherichia coli, Chlor −, read-out: MIC): 3.13 µg/mL (≈ 5.11 µM)
fold difference in susceptibility between EKO-35 and ΔtolC (EKO-35 (empty pCA24N); while profiling the ASKA EKO-35 strains): 2 fold
Effect ([1]; EKO-35 acrB): Synergistic
FICI ([1]; EKO-35 acrB): 0.156
MICb Alone ([1]; EKO-35 acrB): 1024 µg/mL
MICb Combined ([1]; EKO-35 acrB): 32 µg/mL
Effect ([1]; EKO-35 acrD): Synergistic
FICI ([1]; EKO-35 acrD): 0.313
MICb Alone ([1]; EKO-35 acrD): 512 µg/mL
MICb Combined ([1]; EKO-35 acrD): 32 µg/mL
MIC (EKO-35 wcaC (pCA24N); Chlor + (4 μg/mL)): 1.56 µg/mL
effect of gyrB overexpression on resistance of EKO-35 (EKO-35 gyrB (pCA24N); ASKA plasmid): increased novobiocin resistance
MIC (EKO-35 gyrB (pCA24N); Escherichia coli, Chlor + (4 μg/mL), read-out: MIC): 25 µg/mL
MIC (ΔtolC (empty pCA24N); Escherichia coli, Chlor +): 1.56 µg/mL (≈ 2.55 µM)
MIC (ΔtolC (empty pCA24N); Escherichia coli, Chlor −): 3.13 µg/mL (≈ 5.11 µM)
Effect ([2]; PAβN + antibiotic): Additive
FICI ([2]; PAβN + antibiotic): 0.750
MICb Alone [2, 4]: 1 µg/mL
MICb Combined [2, 5]: 0.25 µg/mL
Effect (EKO-35-Pore; EKO-35 Pore, PAβN + antibiotic): Additive
FICI (EKO-35-Pore; EKO-35 Pore, PAβN + antibiotic): 0.630
MICb Alone (EKO-35-Pore; EKO-35 Pore, antibiotic alone (PAβN checkerboard)): 1 µg/mL
MICb Combined (EKO-35-Pore; EKO-35 Pore, antibiotic in combination with PAβN): 0.13 µg/mL
interaction of PAβN in combination with the labelled antibiotic (FICI) (EKO-35-Pore; porinated efflux-deficient strains): no longer synergistic
Effect (wild-type K-12-Pore; PAβN + antibiotic): Additive
FICI (wild-type K-12-Pore; PAβN + antibiotic): 0.508
MICb Alone (wild-type K-12-Pore; [4]): 16 µg/mL
MICb Combined (wild-type K-12-Pore; [5]): 8 µg/mL
Effect ([3]; PAβN + antibiotic): Synergistic
FICI ([3]; PAβN + antibiotic): 0.094
MICb Alone [3, 4]: 512 µg/mL
MICb Combined [3, 5]: 16 µg/mL

benzalkonium chloride
MIC (EKO-35 (empty pCA24N); [6]): 0.781 µg/mL
MIC (EKO-35 (empty pCA24N); Chlor −): 0.781 µg/mL
MIC (EKO-35 wcaC (pCA24N); Chlor + (4 μg/mL)): 0.391 µg/mL
MIC (EKO-35 wcaC (pCA24N); Chlor −): 0.781 µg/mL
MIC (EKO-35 gyrB (pCA24N); Chlor + (4 μg/mL)): 0.781 µg/mL
MIC (EKO-35 gyrB (pCA24N); Chlor −): 0.781 µg/mL
MIC (ΔtolC (empty pCA24N); Chlor +): 0.781 µg/mL
MIC (ΔtolC (empty pCA24N); Chlor −): 1.56 µg/mL
MIC (EKO-35 pitA (pCA24N); EKO-35 pitA, Chlor −): 0.781 µg/mL
